{"source": "paper PMC9974930", "about": "(Journal of medicinal chemistry, 2023)", "key": {"[1]": {"target": "T1, recombinant human sEH (HsEH) (Homo sapiens, UniProt P34913)", "T1 sequence (P34913 1-555)": "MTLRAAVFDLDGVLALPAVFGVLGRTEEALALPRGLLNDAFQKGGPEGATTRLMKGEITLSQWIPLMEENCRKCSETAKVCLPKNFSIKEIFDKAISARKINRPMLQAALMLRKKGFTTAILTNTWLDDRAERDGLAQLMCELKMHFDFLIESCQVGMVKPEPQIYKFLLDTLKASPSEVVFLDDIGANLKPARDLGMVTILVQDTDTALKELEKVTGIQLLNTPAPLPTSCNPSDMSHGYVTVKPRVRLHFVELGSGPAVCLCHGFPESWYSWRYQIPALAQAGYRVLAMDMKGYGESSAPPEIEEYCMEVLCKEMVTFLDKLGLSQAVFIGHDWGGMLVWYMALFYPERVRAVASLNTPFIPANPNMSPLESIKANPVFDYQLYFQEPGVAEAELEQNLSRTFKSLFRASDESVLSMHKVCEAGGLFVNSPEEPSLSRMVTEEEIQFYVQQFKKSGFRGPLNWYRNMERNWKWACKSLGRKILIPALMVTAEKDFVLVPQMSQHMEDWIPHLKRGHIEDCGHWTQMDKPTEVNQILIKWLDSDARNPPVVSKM", "experiment": "biochemical"}, "murine sEH (MsEH)": {"target": "T2, murine sEH (MsEH) (Mus musculus, UniProt P34914)", "T2 sequence (P34914 1-554)": "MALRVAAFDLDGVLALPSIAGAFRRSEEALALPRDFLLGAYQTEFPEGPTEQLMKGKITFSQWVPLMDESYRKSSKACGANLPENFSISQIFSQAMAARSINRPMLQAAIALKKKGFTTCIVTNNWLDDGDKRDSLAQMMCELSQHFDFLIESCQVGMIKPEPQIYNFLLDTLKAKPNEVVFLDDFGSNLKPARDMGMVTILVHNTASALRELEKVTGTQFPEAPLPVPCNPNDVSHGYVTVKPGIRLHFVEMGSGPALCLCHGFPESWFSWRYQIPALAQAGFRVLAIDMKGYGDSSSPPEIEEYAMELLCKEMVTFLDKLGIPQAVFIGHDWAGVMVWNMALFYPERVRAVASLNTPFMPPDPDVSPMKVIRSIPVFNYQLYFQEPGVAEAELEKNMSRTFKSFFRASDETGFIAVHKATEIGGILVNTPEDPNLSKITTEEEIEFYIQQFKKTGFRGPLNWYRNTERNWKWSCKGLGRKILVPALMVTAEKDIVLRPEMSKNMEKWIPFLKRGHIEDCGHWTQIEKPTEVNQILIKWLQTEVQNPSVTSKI", "experiment": "sEH inhibition, fluorescent-based assay with PHOME substrate", "assay_type": "biochemical"}, "CFA-induced AIA mice": {"test_system": "CFA-induced AIA mice", "experiment": "CFA-induced arthritis", "assay_type": "in vivo, Kunming mice", "settings": "10 mg / kg ip; for body weight change: 24 h of drug treatment"}, "[2]": {"experiment": "Microsomal stability in rat liver microsomes"}, "[3]": {"experiment": "Pharmacokinetic study in vivo"}, "IL-6, MCP-5 and TNF-α": {"test_system": "IL-6, MCP-5 and TNF-α", "experiment": "ELISA of plasma inflammatory factors, LPS-induced sepsis model", "assay_type": "in vivo, C57BL/6 mice", "settings": "5 mg / kg ip"}, "[4]": {"experiment": "Microsomal stability in human liver microsomes"}, "[5]": {"test_system": "COX-2, sEH, NOS-2 and VCAM", "experiment": "Western blot of inflammatory factors in plasma, LPS-induced sepsis model", "assay_type": "in vivo, C57BL/6 mice", "settings": "5 mg / kg ip"}, "LPS-induced sepsis model": {"test_system": "LPS-induced sepsis model", "experiment": "LPS-induced sepsis model, survival", "assay_type": "in vivo, C57BL/6 mice", "settings": "28 hours; LPS 30 mg / kg ip; 5 mg / kg ip at 4 h and 12 h later"}, "[6]": {"settings": "both, Sprague-Dawley, rat, in vivo, iv, 10 mg/kg"}}, "note": "Where two headings read alike, the source gives them in different places.", "data": [{"smiles": "C[C@]12C[C@@H]3C[C@](C)(C1)C[C@@](NC(=O)Nc1ccc(C(=O)N4CCC(C(=O)N5CCN(CCO)CC5)CC4)cc1F)(C3)C2", "note": "[A4, 1-((1r,3R,5S,7r)-3,5-Dimethyladamantan-1-yl)-3-(2-fluoro-4-(4-(4-(2-hydroxyethyl)piperazine-1-carbonyl)piperidine-1-carbonyl)phenyl)urea]", "values": [{"measurement": "IC50", "setting": "[1]", "value": 12.5, "unit": "nM"}, {"measurement": "IC50", "setting": "murine sEH (MsEH)", "value": 0.32, "unit": "nM"}]}, {"smiles": "CCC(=O)N1CCCN(C(=O)C2CCCN(Cc3ccc(NC(=O)N[C@@]45C[C@@H]6C[C@@](C)(C[C@@](C)(C6)C4)C5)c(F)c3)C2)CC1", "note": "(stereo partly drawn) [G1, 1-((1r,3R,5S,7r)-3,5-Dimethyladamantan-1-yl)-3-(2-fluoro-4-((3-(4-propionyl-1,4-diazepane-1-carbonyl)piperidin-1-yl)methyl)phenyl)urea]", "values": [{"measurement": "effect on paw swelling rate, in words", "setting": "CFA-induced AIA mice", "value": "significantly reduced the swelling rate of mouse paw thickness"}, {"measurement": "increase of pain valve (pain threshold, hot plate)", "setting": "CFA-induced AIA mice", "value": 70.10, "unit": "%"}, {"measurement": "reduced foot swelling, thickness", "setting": "CFA-induced AIA mice", "value": 21.4, "unit": "%"}, {"measurement": "reduced foot swelling, width", "setting": "CFA-induced AIA mice", "value": 6.98, "unit": "%"}, {"measurement": "body weight change", "setting": "CFA-induced AIA mice", "value": "increase in body weight"}, {"measurement": "effect on pain threshold, in words", "setting": "CFA-induced AIA mice; hot plate", "value": "faster onset of analgesia than celecoxib"}, {"measurement": "time after administration at which analgesic effect began", "setting": "CFA-induced AIA mice; hot plate", "value": 10, "unit": "min"}, {"measurement": "time of peak analgesic effect", "setting": "CFA-induced AIA mice; hot plate", "value": 2, "unit": "h"}, {"measurement": "Mean concentration of G1 in microsomal buffer", "setting": "[2]; time 0", "value": 100, "unit": "µg/mL"}, {"measurement": "Mean concentration of G1 in microsomal buffer", "setting": "[2]; time 10", "value": 75.04, "unit": "µg/mL"}, {"measurement": "Mean concentration of G1 in microsomal buffer", "setting": "[2]; time 30", "value": 66.63, "unit": "µg/mL"}, {"measurement": "Mean concentration of G1 in microsomal buffer", "setting": "[2]; time 60", "value": 62.01, "unit": "µg/mL"}, {"measurement": "LLE (ligand lipophilicity efficiency)", "setting": "[1]", "value": 7.553}, {"measurement": "AUC(0-inf)", "setting": "[3]; [6]", "value": 0.0115, "unit": "µM·h"}, {"measurement": "clearance", "setting": "[3]; [6]", "value": 4.83, "unit": "mL/min/kg"}, {"measurement": "AUC(0-inf)", "setting": "[3]; both, Sprague-Dawley, rat, in vivo, po, 50 mg/kg", "value": 0.0102, "unit": "µM·h"}, {"measurement": "CL", "setting": "[3]; rats, po 50 mg / kg", "value": 28.3, "unit": "mL/min/kg"}, {"measurement": "VZ", "setting": "[3]; rats, po 50 mg / kg", "value": 13.12, "unit": "L/kg"}, {"measurement": "IL-6 levels", "setting": "IL-6, MCP-5 and TNF-α", "value": "significant reduction in IL-6 levels"}, {"measurement": "TNF-α levels", "setting": "IL-6, MCP-5 and TNF-α", "value": "considerably lowered TNF-α levels"}, {"measurement": "effect of lowering MCP-5", "setting": "IL-6, MCP-5 and TNF-α", "value": "lower than dexamethasone"}, {"measurement": "Mean concentration of G1 in microsomal buffer", "setting": "[4]; time 0", "value": 100, "unit": "µg/mL"}, {"measurement": "Mean concentration of G1 in microsomal buffer", "setting": "[4]; time 10", "value": 81.12, "unit": "µg/mL"}, {"measurement": "Mean concentration of G1 in microsomal buffer", "setting": "[4]; time 30", "value": 74.76, "unit": "µg/mL"}, {"measurement": "Mean concentration of G1 in microsomal buffer", "setting": "[4]; time 60", "value": 68.78, "unit": "µg/mL"}, {"measurement": "COX-2 expression levels", "setting": "[5]", "value": "higher than in the control group"}, {"measurement": "NOS-2 expression", "setting": "[5]", "value": "reduced NOS-2 expression"}, {"measurement": "expression of sEH", "setting": "[5]; compared to the model group", "value": "significantly reduced the expression of sEH"}, {"measurement": "vascular cell adhesion molecule (VCAM)", "setting": "[5]; compared to the solvent group", "value": "little change"}]}, {"smiles": "C[C@@H]1C[C@H]2[C@@H]3CCC4=CC(=O)C=C[C@]4(C)[C@@]3(F)[C@@H](O)C[C@]2(C)[C@@]1(O)C(=O)CO", "note": "[dexamethasone, reference compound]", "values": [{"measurement": "IL-6 levels", "setting": "IL-6, MCP-5 and TNF-α", "value": "significant reduction in IL-6 levels"}, {"measurement": "TNF-α levels", "setting": "IL-6, MCP-5 and TNF-α", "value": "considerably lowered TNF-α levels"}, {"measurement": "COX-2 expression levels", "setting": "[5]", "value": "higher than in the control group"}, {"measurement": "survival rate", "setting": "LPS-induced sepsis model", "value": "all of the mice in the dexamethasone group died"}]}, {"smiles": "C[C@]12C[C@@H]3C[C@](C)(C1)C[C@@](NC(=O)Nc1ccc(C(=O)N4CCCC(C(=O)N5CCN(CCO)CC5)C4)cc1F)(C3)C2", "note": "(stereo partly drawn) [B4, 1-((1r,3R,5S,7r)-3,5-Dimethyladamantan-1-yl)-3-(2-fluoro-4-(3-(4-(2-hydroxyethyl)piperazine-1-carbonyl)piperidine-1-carbonyl)phenyl)urea]", "values": [{"measurement": "LLE (ligand lipophilicity efficiency)", "setting": "[1]; LLE = pIC50-cLogP", "value": 6.516}]}, {"smiles": "C[C@]12C[C@@H]3C[C@](C)(C1)C[C@@](NC(=O)Nc1ccc(C(=O)NC4CCC(C(=O)NC(CO)(CO)CO)CC4)cc1F)(C3)C2", "note": "(stereo partly drawn) [C8, N-(4-((1,3-Dihydroxy-2-(hydroxymethyl)propan-2-yl)carbamoyl)cyclohexyl)-4-(3-((1r,3R,5S,7r)-3,5-dimethyladamantan-1-yl)ureido)-3-fluorobenzamide]", "values": [{"measurement": "LLE (ligand lipophilicity efficiency)", "setting": "[1]; LLE = pIC50-cLogP", "value": 7.653}]}, {"smiles": "Cc1ccc(-c2cc(C(F)(F)F)nn2-c2ccc(S(N)(=O)=O)cc2)cc1", "note": "[celecoxib, reference compound]", "values": [{"measurement": "reduced foot swelling, thickness", "setting": "CFA-induced AIA mice", "value": 17.99, "unit": "%"}, {"measurement": "reduced foot swelling, width", "setting": "CFA-induced AIA mice", "value": 6.4, "unit": "%"}, {"measurement": "body weight change", "setting": "CFA-induced AIA mice", "value": "increase in body weight"}, {"measurement": "effect on pain threshold, in words", "setting": "CFA-induced AIA mice; hot plate", "value": "did not significantly raise the pain threshold at 2 h"}]}, {"smiles": "C[C@]12C[C@@H]3C[C@](C)(C1)C[C@@](NC(=O)Nc1ccc(CN4CCCC(C(N)=O)C4)cc1F)(C3)C2", "note": "(stereo partly drawn) [D1, 1-(4-(3-((1r,3R,5S,7r)-3,5-Dimethyladamantan-1-yl)ureido)-3-fluorobenzyl)piperidine −3-carboxamide]", "values": [{"measurement": "LLE (ligand lipophilicity efficiency)", "setting": "[1]; LLE = pIC50-cLogP", "value": 6.464}]}, {"smiles": "CC(O)CNC(=O)C1CCN(Cc2ccc(NC(=O)N[C@@]34C[C@@H]5C[C@@](C)(C[C@@](C)(C5)C3)C4)c(F)c2)CC1", "note": "(stereo partly drawn) [E2, 1-(4-(3-((1r,7r)-3,5-Dimethyladamantan-1-yl)ureido)-3-fluorobenzyl)-N-(2-hydroxypropyl)piperidine-4-carboxamide]", "values": [{"measurement": "LLE (ligand lipophilicity efficiency)", "setting": "[1]; LLE = pIC50-cLogP", "value": 3.267}]}, {"smiles": "CC(CN(C)C)N1CCC(CC(=O)N2CCCN(C(=O)c3ccc(NC(=O)N[C@@]45C[C@@H]6C[C@@](C)(C[C@@](C)(C6)C4)C5)c(F)c3)CC2)CC1", "note": "(stereo partly drawn) [H4, 1-((1r,3R,5S,7r)-3,5-Dimethyladamantan-1-yl)-3-(4-(4-(2-(1-(1-(dimethylamino)propan-2-yl)piperidin-4-yl)acetyl)-1,4-diazepane-1-carbonyl)-2-fluorophenyl)urea]", "values": [{"measurement": "LLE (ligand lipophilicity efficiency)", "setting": "[1]; LLE = pIC50-cLogP", "value": 3.920}]}, {"smiles": "CC(=O)N1CCC(CC(=O)N2CCCN(Cc3ccc(NC(=O)N[C@@]45C[C@@H]6C[C@@](C)(C[C@@](C)(C6)C4)C5)c(F)c3)CC2)CC1", "note": "[I1, 1-(4-((4-(2-(1-Acetylpiperidin-4-yl)acetyl)-1,4-diazepan-1-yl)methyl)-2-fluorophenyl)-3-((1r,3R,5S,7r)-3,5-dimethyladamantan-1-yl)urea]", "values": [{"measurement": "LLE (ligand lipophilicity efficiency)", "setting": "[1]; LLE = pIC50-cLogP", "value": 6.119}]}]}
